Counter-ions that a name gives are not always drawn.
Key:
[1] = target: T1, proMMP9(67-444;ΔFnII) (SEQ ID NO:5) (Homo sapiens, UniProt P14780, DEL216-390); test: ThermoFluor with proMMP9(67-444;ΔFnII); settings: read-out: proMMP9(67-444; ΔFnII) (SEQ ID NO: 5) binding
T1 construct: start methionine (N); made in house; host or cells: E. coli BL21(DE3) RIL
T1 sequence (P14780 with tags, fused parts or gaps DEL216-390): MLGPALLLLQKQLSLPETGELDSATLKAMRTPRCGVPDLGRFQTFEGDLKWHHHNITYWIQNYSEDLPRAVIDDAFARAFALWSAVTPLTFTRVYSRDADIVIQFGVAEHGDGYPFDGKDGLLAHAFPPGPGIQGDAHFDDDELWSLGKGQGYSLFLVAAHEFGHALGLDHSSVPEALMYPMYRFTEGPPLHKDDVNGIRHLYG
Procedure, shortened: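 Thermal shift with 3.5 μM protein and 50 μM 1,8-ANS in 50 mM HEPES pH 7.0, 100 mM NaCl, 0.001% Tween-20, 2.5 mM MgCl2, 300 μM CaCl2, heated 40–90 °C at 1 °C/min. Fluorescence (500±25 nm) fit to yield Tm; binding fitted using DSC/ThermoFluor-derived thermodynamic parameters, compounds dosed as serial dilutions.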

[2] = target: T2, proMMP9(20-445;ΔFnII) (SEQ ID NO:6) (Homo sapiens, UniProt P14780, DEL216-390); test: ThermoFluor with proMMP9(20-445;ΔFnII); settings: read-out: proMMP9(20-445; ΔFnII) (SEQ ID NO: 6) binding
T2 construct: start methionine (N); made in house; host or cells: E. coli BL21(DE3) RIL
T2 sequence (P14780 with tags, fused parts or gaps DEL216-390): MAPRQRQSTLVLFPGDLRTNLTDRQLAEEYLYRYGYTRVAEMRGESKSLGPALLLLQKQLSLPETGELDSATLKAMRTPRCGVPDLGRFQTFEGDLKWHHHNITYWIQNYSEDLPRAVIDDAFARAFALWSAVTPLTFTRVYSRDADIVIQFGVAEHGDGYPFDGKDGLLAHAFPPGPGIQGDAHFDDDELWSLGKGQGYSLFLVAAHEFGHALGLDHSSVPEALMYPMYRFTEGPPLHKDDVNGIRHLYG
Procedure, shortened: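 Thermal shift of 2.8 μM desalted proMMP9(20-445;ΔFnII) with 50 μM 1,8-ANS in 50 mM HEPES pH 7.0, NaCl, Tween-20, MgCl2, CaCl2; heated 40-90 °C at 1 °C/min, emission 500 nm. Tm from fitted curves; binding fit using DSC/ThermoFluor-derived unfolding parameters for 11-point compound dilutions.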

[3] = target: T3, proMMP13(1-268) (SEQ ID NO:7) (Homo sapiens, UniProt P45452); test: ProMMP13/Plasmin P126 Activation Assay; type: biochemical; settings: proMMP13(1-268) activated by plasmin
T3 construct: 6×-histidine tag (C); made in house; host or cells: HEK293 (transient transfection, secreted)
Protocol: ProMMP13/Plasmin P126 Activation Assay
On the day of assay, proMMP13(1-268) (SEQ ID NO:7) purified from HEK293 cells and plasmin were diluted to 160 nM and 320 nM, respectively, in assay buffer. The reaction volume was 50 μL. […] The plate was sealed and incubated for 40 min at 37° C. […] Plasmin was not reactive towards P-126 substrate under these conditions.

[4] = target: T4, full-length proMMP9(1-707) (SEQ ID NO:1) (Homo sapiens, UniProt P14780, R574P); test: proMMP9/MMP3 P126 Activation Assay; type: biochemical; settings: proMMP9(1-707) from HEK293 cells activated by catalytic MMP3
T4 construct: made in house; host or cells: HEK293 (proMMP9, secreted); E. coli (MMP3)
Protocol: proMMP9/MMP3 P126 Activation Assay
The reaction volume was 50 μL. […] Reactivity of residual MMP3 towards P-126 substrate was minimal under these conditions.

T4 sequence (P14780 20-707 R574P): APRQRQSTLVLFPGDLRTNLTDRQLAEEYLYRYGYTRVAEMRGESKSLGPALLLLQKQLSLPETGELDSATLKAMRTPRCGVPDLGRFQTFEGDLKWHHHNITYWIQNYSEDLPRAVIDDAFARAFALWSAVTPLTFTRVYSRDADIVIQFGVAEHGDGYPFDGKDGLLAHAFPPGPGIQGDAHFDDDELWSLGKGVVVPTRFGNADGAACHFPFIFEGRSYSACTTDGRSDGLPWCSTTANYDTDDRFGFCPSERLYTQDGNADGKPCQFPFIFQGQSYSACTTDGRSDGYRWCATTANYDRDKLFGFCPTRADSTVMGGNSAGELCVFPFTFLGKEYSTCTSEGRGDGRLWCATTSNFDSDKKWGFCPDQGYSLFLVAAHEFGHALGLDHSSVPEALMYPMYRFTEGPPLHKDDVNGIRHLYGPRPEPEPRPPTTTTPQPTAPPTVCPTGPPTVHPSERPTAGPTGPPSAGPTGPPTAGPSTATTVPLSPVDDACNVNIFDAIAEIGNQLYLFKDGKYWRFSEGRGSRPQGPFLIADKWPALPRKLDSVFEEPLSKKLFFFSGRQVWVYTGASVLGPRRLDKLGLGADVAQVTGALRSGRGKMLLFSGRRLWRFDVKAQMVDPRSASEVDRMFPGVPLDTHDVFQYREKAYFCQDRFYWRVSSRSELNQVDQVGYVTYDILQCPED

Row | Compound | Kd [1] [µM] | Kd [2] [µM] | IC50 [3] [µM] | IC50 [4] [µM]
1 | CCOc1ccncc1Nc1nc(-c2ccc(C3=CCN(CC)CC3)cc2)cs1 [Example 22, N-(4-Ethoxypyridin-3-yl)-4-(4-(1-ethyl-1,2,3,6-tetrahydropyridin-4-yl)phenyl)thiazol-2-amine.TFA] | 0.036 | 0.34 | 1.2 | 0.069
2 | CC(C)Oc1ccc(S(N)(=O)=O)cc1Nc1nc(-c2ccc(C3=CCN(C)CC3)cc2)cs1 [Example 13, 4-Isopropoxy-3-((4-(4-(1-methyl-1,2,3,6-tetrahydropyridin-4-yl)phenyl)thiazol-2-yl)amino)benzenesulfonamide.TFA] | 0.014 | 0.017 | 0.19 | 0.024
3 | CC(C)Oc1ccc(C(N)=O)cc1Nc1nc(-c2ccc(CN3CCN(C4CC4)CC3)cc2)cs1 [Example 50, 3-((4-(4-((4-cyclopropylpiperazin-1-yl)methyl)phenyl)thiazol-2-yl)amino)-4-isopropoxybenzamide.TFA] | 0.1 | 0.022 | 0.68 | 0.049
4 | CC(C)Oc1ccc(S(N)(=O)=O)cc1Nc1nc(-c2ccc(CN3CCN(C)CC3)cc2)cs1 [Example 49, 4-isopropoxy-3-((4-(4-((4-methylpiperazin-1-yl)methyl)phenyl)thiazol-2-yl)amino)benzenesulfonamide.TFA] | 0.04 | 0.026 | 3.4 | 0.18
5 | CC(C)Oc1ccc(C(N)=O)cc1Nc1nc(-c2ccc(CN3CCN(C(C)C)CC3)cc2)cs1 [Example 56, 4-isopropoxy-3-((4-(4-((4-isopropylpiperazin-1-yl)methyl)phenyl)thiazol-2-yl)amino)benzamide.TFA] | 0.08 | 0.018 | 0.42 | 0.1
6 | CC(C)Oc1ccc(S(N)(=O)=O)cc1Nc1nc(-c2ccc(C3=CCNCC3)cc2)cs1 [Example 12, 4-Isopropoxy-3-((4-(4-(1,2,3,6-tetrahydropyridin-4-yl)phenyl)thiazol-2-yl)amino)benzenesulfonamide.TFA] | 0.012 | 0.018 | 0.34 | 0.066
7 | CCOc1ccncc1Nc1nc(-c2ccc(C3=CCN(C(C)C)CC3)cc2)cs1 [Example 23, N-(4-Ethoxypyridin-3-yl)-4-(4-(1-isopropyl-1,2,3,6-tetrahydropyridin-4-yl)phenyl)thiazol-2-amine.TFA] | 0.035 | 0.51 | 0.85 | 0.06
8 | CC(C)Oc1ccc(C(N)=O)cc1Nc1nc(-c2ccc(OCCN3CCN(C)CC3)cc2)cs1 [Example 42, 4-isopropoxy-3-((4-(4-(2-(4-methylpiperazin-1-yl)ethoxy)phenyl)thiazol-2-yl)amino)benzamide.TFA] | 0.078 | 0.016 | 0.27 | 0.027
9 | CC(C)Oc1ccc(S(N)(=O)=O)cc1Nc1nc(-c2ccc(N3CCNCC3)c(Br)c2)cs1 [Example 2, 3-((4-(3-Bromo-4-(piperazin-1-yl)phenyl)thiazol-2-yl)amino)-4-isopropoxybenzenesulfonamide.TFA] | 0.015 | 0.017 | 0.56 | 0.067
10 | CC(C)Oc1ccc(S(N)(=O)=O)cc1Nc1nc(-c2ccc(OCCN3CCN(C4CC4)CC3)cc2)cs1 [Example 45, 3-((4-(4-(2-(4-cyclopropylpiperazin-1-yl)ethoxy)phenyl)thiazol-2-yl)amino)-4-isopropoxybenzenesulfonamide.TFA] | 0.056 | 0.029 | 0.95 | 0.041
11 | COc1ccc(F)cc1Nc1nc(-c2ccc(OCCN3CCN(C)CC3)cc2)cs1 [Example 69, N-(5-fluoro-2-methoxyphenyl)-4-(4-(2-(4-methylpiperazin-1-yl)ethoxy)phenyl)thiazol-2-amine.TFA] | 0.36 | 1.5 | 4.3 | 0.09
12 | CC(C)Oc1ccc(C(N)=O)cc1Nc1nc(-c2ccc(C3=CCN(C)CC3)cc2)cs1 [Example 17, 4-Isopropoxy-3-((4-(4-(1-methyl-1,2,3,6-tetrahydropyridin-4-yl)phenyl)thiazol-2-yl)amino)benzamide.TFA] | 0.024 | 0.011 | 0.091 | 0.026
13 | CC(C)Oc1ccc(C(N)=O)cc1Nc1nc(-c2ccc(OCCN3CCN(C4CC4)CC3)cc2)cs1 [Example 44, 3-((4-(4-(2-(4-cyclopropylpiperazin-1-yl)ethoxy)phenyl)thiazol-2-yl)amino)-4-isopropoxybenzamide.TFA] | 0.11 | 0.024 | 0.52 | 0.043
14 | CC(C)Oc1ccc(C(N)=O)cc1Nc1nc(-c2ccc(N3CCN(C(C)C)CC3)cc2)cs1 [Example 10, 4-Isopropoxy-3-((4-(4-(4-isopropylpiperazin-1-yl)phenyl)thiazol-2-yl)amino)benzamide.HCl] | 0.033 | 0.017 | 0.12 | 0.05
15 | CC(C)Oc1ccc(C(N)=O)cc1Nc1nc(-c2ccc(CN3CCN(C)CC3)cc2)cs1 [Example 48, 4-isopropoxy-3-((4-(4-((4-methylpiperazin-1-yl)methyl)phenyl)thiazol-2-yl)amino)benzamide.TFA] | 0.099 | 0.02 | 0.85 | 0.11
16 | CC(C)Oc1ccc(S(N)(=O)=O)cc1Nc1nc(-c2ccc(CN3CC[C@@H](F)C3)cc2)cs1 [Example 53, (R)-3-((4-(4-((3-fluoropyrrolidin-1-yl)methyl)phenyl)thiazol-2-yl)amino)-4-isopropoxybenzenesulfonamide.TFA] | 0.095 | 0.058 | 0.93 | 0.059
17 | CC(C)Oc1ccc(S(N)(=O)=O)cc1Nc1nc(-c2ccc(N3CCN(C)CC3)cc2)cs1 [Example 3, 4-Isopropoxy-3-((4-(4-(4-methylpiperazin-1-yl)phenyl)thiazol-2-yl)amino)benzenesulfonamide.HCl] | 0.088 | 0.088 | 0.39 | 0.074
18 | CCOc1ccncc1Nc1nc(-c2ccc(OCCN3CCN(C)CC3)cc2)cs1 [Example 43, N-(4-ethoxypyridin-3-yl)-4-(4-(2-(4-methylpiperazin-1-yl)ethoxy)phenyl)thiazol-2-amine.TFA] | 0.089 | 0.55 | 2.9 | 0.07
19 | CC(C)Oc1ccc(C(N)=O)cc1Nc1nc(-c2ccc(OCCCN3CCOCC3)cc2)cs1 [Example 46, 4-isopropoxy-3-((4-(4-(3-morpholinopropoxy)phenyl)thiazol-2-yl)amino)benzamide.TFA] | 0.099 | 0.02 | 0.34 | 0.062
20 | CC(C)Oc1ccc(C(N)=O)cc1Nc1nc(-c2ccc(N3CCNCC3)cc2)cs1 [Example 7, 4-Isopropoxy-3-((4-(4-(piperazin-1-yl)phenyl)thiazol-2-yl)amino)benzamide.TFA] | 0.021 | 0.013 | 0.077 | 0.028
21 | CC(C)Oc1ccc(S(N)(=O)=O)cc1Nc1nc(-c2ccc(N3CCNCC3)cc2)cs1 [Example 1, 4-Isopropoxy-3-((4-(4-(piperazin-1-yl)phenyl)thiazol-2-yl)amino)benzenesulfonamide.TFA] | 0.006 | 0.015 | 0.23 | 0.02
22 | CC(C)Oc1ccc(C(N)=O)cc1Nc1nc(-c2ccc(C3=CCN(C(C)C)CC3)cc2)cs1 [Example 19, 4-Isopropoxy-3-((4-(4-(1-isopropyl-1,2,3,6-tetrahydropyridin-4-yl)phenyl)thiazol-2-yl)amino)benzamide.TFA] | 0.021 | 0.013 | 0.087 | 0.028

Source: patent US20120302569A1, “PHENYL-THIAZOLYL INHIBITORS OF PRO-MATRIX METALLOPROTEINASE ACTIVATION” (priority 2011, published 2012)
